Results taken from patent publication US10508085B2, “Compounds and methods for IDO and TDO modulation, and indications therefor” (Plexxikon Inc., priority 2016, dated 2019).

Tests used:
[1] = biological target: T1, Human Indoleamine 2,3-dioxygenase (IDO) (Homo sapiens, UniProt P14902); test: Human IDO enzymatic assay (kynurenine level); format: biochemical; conditions: 6 nM IDO, 10 μM L-Trp; geometric mean; read-out: IDO1 GMean: IC50 (μM) (Biochemical Assay)
T1 construct: His tag (N); made in house; host or cells: E. coli
T1 sequence (P14902 whole entry): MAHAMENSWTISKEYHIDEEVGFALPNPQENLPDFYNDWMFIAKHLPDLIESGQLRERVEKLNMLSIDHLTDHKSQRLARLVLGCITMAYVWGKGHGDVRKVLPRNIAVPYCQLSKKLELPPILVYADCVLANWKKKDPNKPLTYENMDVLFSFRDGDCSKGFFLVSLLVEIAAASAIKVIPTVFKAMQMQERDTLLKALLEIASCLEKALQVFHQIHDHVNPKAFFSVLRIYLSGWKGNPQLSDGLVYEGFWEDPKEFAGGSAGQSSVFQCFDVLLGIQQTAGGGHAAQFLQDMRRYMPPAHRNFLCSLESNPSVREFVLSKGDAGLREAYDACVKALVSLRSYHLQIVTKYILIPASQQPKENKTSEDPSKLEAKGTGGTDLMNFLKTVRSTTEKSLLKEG
Summary of the method: (§1)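 Reactions were stopped with TCA, converting N-formylkynurenine to kynurenine for quantitation, with IC50 by nonlinear regression. IDO: 6 nM enzyme, 10 μM L-Trp, 20 min RT. TDO: 1 nM enzyme, 350 μM L-Trp, 70 min RT, both in pH 6.5 buffer.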

[2] = biological target: T2, Human Tryptophan 2,3-dioxygenase (TDO) (Homo sapiens, UniProt P48775); test: Human TDO enzymatic assay (kynurenine level); format: biochemical; conditions: 1 nM TDO, 350 μM L-Trp; geometric mean; read-out: TDO GMean: IC50 (μM) (Biochemical Assay)
T2 construct: His tag (N); made in house; host or cells: E. coli
T2 sequence (P48775 whole entry): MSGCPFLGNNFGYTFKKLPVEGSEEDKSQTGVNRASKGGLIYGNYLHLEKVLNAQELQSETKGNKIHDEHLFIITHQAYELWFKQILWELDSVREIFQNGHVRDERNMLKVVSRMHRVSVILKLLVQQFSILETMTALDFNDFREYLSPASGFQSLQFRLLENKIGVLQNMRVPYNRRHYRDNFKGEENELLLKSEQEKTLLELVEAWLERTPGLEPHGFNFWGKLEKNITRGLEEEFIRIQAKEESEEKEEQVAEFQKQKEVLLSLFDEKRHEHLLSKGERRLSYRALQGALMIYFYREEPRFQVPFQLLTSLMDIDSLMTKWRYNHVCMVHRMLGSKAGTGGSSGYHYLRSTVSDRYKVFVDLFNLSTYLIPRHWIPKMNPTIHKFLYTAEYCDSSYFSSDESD
Summary of the method: as §1

[3] = biological target: T3, human IDO (IDO1-expressing HEK293 cells) (Homo sapiens, UniProt P14902); test: Cell based kynurenine assay, IDO1-expressing HEK293 cell clones; conditions: IDO1-expressing HEK293 cells, 24 hours incubation; geometric mean; read-out: HEK293 IDO1 Kynurenine GMean IC50 (μM) (Cellular Assay)
T3 construct: expressed in transfected cells
T3 sequence (P14902 whole entry): as the sequence (P14902 whole entry) above
Summary of the method: (§2)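 Supernatant kynurenine was measured after 24 h exposure of stably transfected HEK293 cells (human IDO1 or TDO, 2.5×10^4/well) to serially diluted compound. Percent inhibition used 0.2% DMSO cell wells as high and media-only wells as low controls; IC50 fitted by nonlinear regression.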

[4] = biological target: T4, human TDO (TDO-expressing HEK293 cells) (Homo sapiens, UniProt P48775); test: Cell based kynurenine assay, TDO-expressing HEK293 cell clones; conditions: TDO-expressing HEK293 cells, 24 hours incubation; geometric mean; read-out: HEK293 TDO Kynurenine GMean IC50 (μM) (Cellular Assay)
T4 construct: expressed in transfected cells
T4 sequence (P48775 whole entry): as the sequence (P48775 whole entry) above
Summary of the method: as §2

SMILES | IC50 [1] [µM] | IC50 [2] [µM] | IC50 [3] [µM] | IC50 [4] [µM]
Cc1cc(N2CCN(S(C)(=O)=O)C(C)(C)C2)c2[nH]ncc2c1 [Compound P-0090, 7-(3,3-dimethyl-4-(methylsulfonyl)piperazin-1-yl)-5-methyl-1H-indazole] | 0.0001 to 10 | 0.0001 to 10 | 0.0001 to 10 | 0.0001 to 10
CC1(C)CN(c2c(F)c(Cl)cc3cn[nH]c23)CCN1S(C)(=O)=O [Compound P-0092, 5-chloro-7-(3,3-dimethyl-4-(methylsulfonyl)piperazin-1-yl)-6-fluoro-1H-indazole] | 0.0001 to 10 | 0.0001 to 10 | 0.0001 to 10 | 0.0001 to 10
CS(=O)(=O)N1C2CCC1CN(c1cc(Cl)cc3cn[nH]c13)C2 [Compound P-0093, 5-chloro-7-(8-(methylsulfonyl)-3,8-diazabicyclo[3.2.1]octan-3-yl)-1H-indazole] | 0.0001 to 10 | 0.0001 to 10 | 0.0001 to 10 | 0.0001 to 10
Cc1cc(N2CC3CCC(C2)N3S(C)(=O)=O)c2[nH]ncc2c1 [Compound P-0094, 5-methyl-7-(8-(methylsulfonyl)-3,8-diazabicyclo[3.2.1]octan-3-yl)-1H-indazole] | 0.0001 to 10 | 0.0001 to 10 | > 10 | 0.0001 to 10
CC1(C)CN(c2cc(Cl)c(F)c3cn[nH]c23)CCN1S(C)(=O)=O [Compound P-0097, 5-chloro-7-(3,3-dimethyl-4-(methylsulfonyl)piperazin-1-yl)-4-fluoro-1H-indazole] | 0.0001 to 10 | 0.0001 to 10 | 0.0001 to 10 | 0.0001 to 10
CC1(C(O)c2c(Cl)ccn3cncc23)CCCCC1 (stereo not shown) [Compound P-0098, (7-chloroimidazo[1,5-a]pyridin-8-yl)(1-methylcyclohexyl)methanol] | 0.0001 to 10 | 0.0001 to 10 | 0.0001 to 10 | > 10
OC1(c2cc(Cl)cc3cn[nH]c23)CC2(C1)[C@H]1C[C@@H]3C[C@@H](C[C@H]2C3)C1 (stereo partly drawn) [Compound P-0100, (1R,5S)-3′-(5-chloro-1H-indazol-7-yl)spiro[adamantane-2,1′-cyclobutan]-3′-ol] | 0.0001 to 10 | 0.0001 to 10 | 0.0001 to 10 | 0.0001 to 10
N#CC1CC=C(c2cc(Cl)cc3cn[nH]c23)CC1 (stereo not drawn) [Compound P-0105, 4-(5-chloro-1H-indazol-7-yl)cyclohex-3-ene-l-carbonitrile] | 0.0001 to 10 | 0.0001 to 10 | 0.0001 to 10 | 0.0001 to 10
O=C1NCCC12CCN(c1cc(Cl)cc3cn[nH]c13)CC2 [Compound P-0111, 8-(5-chloro-1H-indazol-7-yl)-2,8-diazaspiro[4.5]decan-l-one] | 0.0001 to 10 | 0.0001 to 10 | 0.0001 to 10 | 0.0001 to 10
CC1(C(O)c2c(F)c(Cl)c(F)c3cn[nH]c23)CC(F)(F)C1 (stereo not shown) [Compound P-0112, (5-chloro-4,6-difluoro-1H-indazol-7-yl)(3,3-difluoro-1-methylcyclobutyl)methanol] | 0.0001 to 10 | 0.0001 to 10 | 0.0001 to 10 | 0.0001 to 10
CC1(C(O)c2c(F)c(Cl)cc3cn[nH]c23)CC(F)(F)C1 (stereo not shown) [Compound P-0114, (5-chloro-6-fluoro-1H-indazol-7-yl)(3,3-difluoro-1-methylcyclobutyl)methanol] | 0.0001 to 10 | 0.0001 to 10 | 0.0001 to 10 | 0.0001 to 10
COc1cc(C(O)C2(C)CCCCC2)c2[nH]ncc2c1 (stereo not shown) [Compound P-0115, (5-methoxy-1H-indazol-7-yl)(1-methylcyclohexyl)methanol] | 0.0001 to 10 | 0.0001 to 10 | 0.0001 to 10 | 0.0001 to 10
CC(C)(C1CCC1)C(O)c1cc(Cl)cc2cn[nH]c12 (stereo not shown) [Compound P-0118, 1-(5-chloro-1H-indazol-7-yl)-2-cyclobutyl-2-methylpropan-1-ol] | 0.0001 to 10 | 0.0001 to 10 | 0.0001 to 10 | 0.0001 to 10
OC(c1cc(Cl)cc2cn[nH]c12)C1(C(F)(F)F)CC1 (stereo not shown) [Compound P-0119, (5-chloro-1H-indazol-7-yl)(1-(trifluoromethyl)cyclopropyl)methanol] | 0.0001 to 10 | 0.0001 to 10 | 0.0001 to 10 | 0.0001 to 10
CCCC1(C(O)c2cc(Cl)cc3cn[nH]c23)CCC1 (stereo not shown) [Compound P-0121, (5-chloro-1H-indazol-7-yl)(1-propylcyclobutyl)methanol] | 0.0001 to 10 | 0.0001 to 10 | 0.0001 to 10 | 0.0001 to 10
CC1(C(O)c2c(F)c(Cl)c(F)c3cn[nH]c23)CCCCC1 (stereo not shown) [Compound P-0123, (5-chloro-4,6-difluoro-1H-indazol-7-yl)(1-methylcyclohexyl)methanol] | 0.0001 to 10 | 0.0001 to 10 | 0.0001 to 10 | 0.0001 to 10

The remaining lines, values ahead:

IC50 [1] [µM] | IC50 [2] [µM] | IC50 [3] [µM] | IC50 [4] [µM] | SMILES
0.0001 to 10 | 0.0001 to 10 | 0.0001 to 10 | 0.0001 to 10 | CC1(C)CN(c2cc(C(F)(F)F)cc3cn[nH]c23)CCN1S(C)(=O)=O [Compound P-0091]
0.0001 to 10 | 0.0001 to 10 | 0.0001 to 10 | 0.0001 to 10 | CS(=O)(=O)N1C2CCC1CN(c1cc(C(F)(F)F)cc3cn[nH]c13)C2 [Compound P-0095, 7-(8-(methylsulfonyl)-3,8-diazabicyclo[3.2.1]octan-3-yl)-5-(trifluoromethyl)-1H-indazole]
0.0001 to 10 | 0.0001 to 10 | > 10 | 0.0001 to 10 | CS(=O)(=O)N1C2CCC1CN(c1c(F)c(Cl)cc3cn[nH]c13)C2 [Compound P-0096, 5-chloro-6-fluoro-7-(8-(methylsulfonyl)-3,8-diazabicyclo[3.2.1]octan-3-yl)-1H-indazole]
0.0001 to 10 | 0.0001 to 10 | 0.0001 to 10 | 0.0001 to 10 | CC1(C(O)c2c3c(cc4cn[nH]c24)CCC3)CCCCC1 (stereo not shown) [Compound P-0099, (1-methylcyclohexyl)(1,5,6,7-tetrahydrocyclopenta[f]indazol-8-yl)methanol]
0.0001 to 10 | 0.0001 to 10 | 0.0001 to 10 | 0.0001 to 10 | OC1(c2cc(Cl)cc3cn[nH]c23)CC2(C1)C1CC3CC(C1)CC2C3 (stereo not shown) [Compound P-0113, (1r,3r,5r,7r)-3′-(5-chloro-1H-indazol-7-yl)spiro[adamantane-2,1′-cyclobutan]-3′-ol]
0.0001 to 10 | 0.0001 to 10 | 0.0001 to 10 | 0.0001 to 10 | OC(c1cc(Cl)cc2cn[nH]c12)C1CCC1 (stereo not shown) [Compound P-0116, (5-chloro-1H-indazol-7-yl)(cyclobutyl)methanol]
0.0001 to 10 | 0.0001 to 10 | 0.0001 to 10 | 0.0001 to 10 | CC1(C(O)c2cc(Cl)cc3cn[nH]c23)CCC1 (stereo not shown) [Compound P-0117, (5-chloro-1H-indazol-7-yl)(1-methylcyclobutyl)methanol]
0.0001 to 10 | 0.0001 to 10 | 0.0001 to 10 | 0.0001 to 10 | OC(c1cc(Cl)cc2cn[nH]c12)C1(C(F)(F)F)CCC1 (stereo not shown) [Compound P-0120, (5-chloro-1H-indazol-7-yl)(1-(trifluoromethyl)cyclobutyl)methanol]
0.0001 to 10 | 0.0001 to 10 | 0.0001 to 10 | 0.0001 to 10 | CNC(=O)N1CC2CCC(C1)C2CC(O)c1cc(Cl)cc2cn[nH]c12 (stereo not shown) [Compound P-0127, 8-(2-(5-chloro-1H-indazol-7-yl)-2-hydroxyethyl)-N-methyl-3-azabicyclo[3.2.l]octane-3-carboxamide]
